From the NIST ThermoML archive (doi:10.1016/j.jct.2008.02.016)
± gives the expanded uncertainty stated by the source.

Settings: Liquid

CCCCCC [hexane]
vapor or sublimation pressure (303.15 K): 25.01 ± 0.37 kPa
vapor or sublimation pressure (313.15 K): 37.54 ± 0.53 kPa
vapor or sublimation pressure (323.15 K): 54.39 ± 0.74 kPa

CCCCCCC [heptane]
vapor or sublimation pressure (303.15 K): 7.87 ± 0.16 kPa
vapor or sublimation pressure (313.15 K): 12.33 ± 0.22 kPa
vapor or sublimation pressure (323.15 K): 18.95 ± 0.3 kPa
